The nature of this data set: in vitro. To be noted: human, hek293t cells.
Protocol: Mammalian cytotoxicity measurement was performed using Cell Titer-Glo 2.0 Cell Viability Assay (Promega, G9243) according to the manufacturer protocol. In brief, mammalian cells were seeded into 384-well white plates (Greiner, 781080) and incubated at 37°C for one day. Compounds from the Cys-Library were dispensed into the assay plate using epMotion 96. The plates were then incubated at 37°C for two days. An equal volume of Cell Titer-Glo 2.0 reagent was added into each well of the assay plate using epMotion 96 and incubated at 22°C for 10 min, followed by luminescence measurement using a Cytation 5 plate reader (BioTek).
Regarding `C=CC(=O)NCCC(=O)N1CCN(c2nc(C)cs2)C(C)C1` (stereo not shown) [2-F06, N-{3-[3-methyl-4-(4-methyl-1,3-thiazol-2-yl)piperazin-1-yl]-3-oxopropyl}prop-2-enamide], the viability at 48 h, 25 µM amounted to 92.9%.
Regarding `C=CC(=O)NC1CCOC(c2cnn(C)c2)C1` (stereo not shown) [2-F07, N-[2-(1-methyl-1H-pyrazol-4-yl)oxan-4-yl]prop-2-enamide], the viability at 48 h, 25 µM came to 73%.
To `C=CC(=O)N(CC)CC(=O)N1CCCC1c1ccc(F)cc1C` (stereo not shown) [2-F08, N-ethyl-N-{2-[2-(4-fluoro-2-methylphenyl)pyrrolidin-1-yl]-2-oxoethyl}prop-2-enamide] belongs 74.7%; to `C=CC(=O)NC1CC(CC(F)(F)F)C1` (stereo not shown) [2-F09, N-[3-(2,2,2-trifluoroethyl)cyclobutyl]prop-2-enamide], 65.5%.
Take `C=CC(=O)N1CCC(C(=O)N(C)Cc2cc(C(C)(C)C)[nH]n2)CC1` [2-F10, N-[(5-tert-butyl-1H-pyrazol-3-yl)methyl]-N-methyl-1-(prop-2-enoyl)piperidine-4-carboxamide]: the viability at 48 h, 25 µM turned out to be 45.6%.
Then `C=CC(=O)NCc1cn(C(F)F)c2ccccc12` [2-F11, N-{[1-(difluoromethyl)-1H-indol-3-yl]methyl}prop-2-enamide], with 49%.
Consider `C=CC(=O)N1CCC(C(=O)N2CCCC(CC(N)=O)CC2)CC1` (stereo not shown) [2-F12, 2-{1-[1-(prop-2-enoyl)piperidine-4-carbonyl]azepan-4-yl}acetamide], for which the viability at 48 h, 25 µM stood at 65.1%.
To `C=CC(=O)NCc1coc(-c2ccc(C)cc2)n1` [2-F13, N-{[2-(4-methylphenyl)-1,3-oxazol-4-yl]methyl}prop-2-enamide] belongs 48.2%; to `C=CC(=O)N1CCC(C(=O)N(C)C(C)Cc2ccc(C)cc2)CC1` (stereo not shown) [2-F14, N-methyl-N-[1-(4-methylphenyl)propan-2-yl]-1-(prop-2-enoyl)piperidine-4-carboxamide], 79.5%.
Then `C=CC(=O)NCc1cc(Cl)c2c(c1)OCO2` [2-F15, N-[(7-chloro-1,3-dioxaindan-5-yl)methyl]prop-2-enamide], with 50.9%; and `C=CC(=O)N(C)CC(=O)N1CCC(CN2CCCCC2=O)CC1` [2-F16, N-methyl-N-(2-oxo-2-{4-[(2-oxopiperidin-1-yl)methyl]piperidin-1-yl}ethyl)prop-2-enamide], with 57%.
`C=CC(=O)NCC1CNC(=O)c2ccccc21` (stereo not shown) [2-F17, N-[(1-oxo-1,2,3,4-tetrahydroisoquinolin-4-yl)methyl]prop-2-enamide]: the viability at 48 h, 25 µM was 54.8%.
To `C=CC(=O)Nc1ccc(-c2nnnn2C)cc1` [2-F18, N-[4-(1-methyl-1H-1,2,3,4-tetrazol-5-yl)phenyl]prop-2-enamide] belongs 95.5%.
Turning to `C=CC(=O)NCc1cnc(C)n1-c1ccccc1` [2-F19, N-[(2-methyl-1-phenyl-1H-imidazol-5-yl)methyl]prop-2-enamide], the viability at 48 h, 25 µM is 49%.
Then `C=CC(=O)Nc1ccc(C(=O)N[C@@H]2CCN(C(C)=O)C2)cc1` [2-F20, N-[(3R)-1-acetylpyrrolidin-3-yl]-4-(prop-2-enamido)benzamide], with 73.4%; and `C=CC(=O)Nc1ccnc(OC)c1` [2-F21, N-(2-methoxypyridin-4-yl)prop-2-enamide], with 1.66%; and `C=CC(=O)NCc1ccc(C(=O)N2CCN(c3nc(C)n[nH]3)CC2)cc1` [2-F22, N-({4-[4-(3-methyl-1H-1,2,4-triazol-5-yl)piperazine-1-carbonyl]phenyl}methyl)prop-2-enamide], with 78.3%.
`C=CC(=O)N1CCC[C@H]1c1ccon1` [2-G03, 1-[(2S)-2-(1,2-oxazol-3-yl)pyrrolidin-1-yl]prop-2-en-1-one]: the viability at 48 h, 25 µM was 181%.
For `C=CC(=O)N1CCC(C(=O)NCC(C)(C)C=C)CC1` [2-G04, N-(2,2-dimethylbut-3-en-1-yl)-1-(prop-2-enoyl)piperidine-4-carboxamide], the viability at 48 h, 25 µM is 84.5%.
To `C=CC(=O)Nc1nn(CC(C)C)cc1Cl` [2-G05, N-[4-chloro-1-(2-methylpropyl)-1H-pyrazol-3-yl]prop-2-enamide] belongs 103%; to `C=CC(=O)N1Cc2ccccc2C[C@@H]1C(=O)NC1CC1` [2-G06, (3R)-N-cyclopropyl-2-(prop-2-enoyl)-1,2,3,4-tetrahydroisoquinoline-3-carboxamide], 101%; to `C=CC(=O)N(Cc1cnn(C2CCC2)c1)C1CCCc2occc21` (stereo not shown) [2-G07, N-[(1-cyclobutyl-1H-pyrazol-4-yl)methyl]-N-(4,5,6,7-tetrahydro-1-benzofuran-4-yl)prop-2-enamide], 103%.
As to `C=CC(=O)NCCc1cscn1` [2-G08, N-[2-(1,3-thiazol-4-yl)ethyl]prop-2-enamide], the viability at 48 h, 25 µM was 87.1%.
On to `C=CC(=O)N(C)Cc1cccc(Cl)c1` [2-G09, N-[(3-chlorophenyl)methyl]-N-methylprop-2-enamide], for which the viability at 48 h, 25 µM is 60.6%.
Turning to `C=CC(=O)N1CCC(C(=O)NCc2c[nH]cn2)CC1` [2-G10, N-[(1H-imidazol-4-yl)methyl]-1-(prop-2-enoyl)piperidine-4-carboxamide], the viability at 48 h, 25 µM is 98.7%.
Then `C=CC(=O)Nc1cc(NC(=O)c2cnn(-c3ccccc3)c2)ccc1F` [2-G11, N-[4-fluoro-3-(prop-2-enamido)phenyl]-1-phenyl-1H-pyrazole-4-carboxamide], with 0.749%.
For the compound `C=CC(=O)NCCC(=O)Nc1c(C)c(C)nn1C` [2-G12, N-{2-[(1,3,4-trimethyl-1H-pyrazol-5-yl)carbamoyl]ethyl}prop-2-enamide], the viability at 48 h, 25 µM came to 93%.
To `C=CC(=O)N(Cc1c(C)nn(CC)c1C)c1ccc2c(c1)COC2` [2-G13, N-(1,3-dihydro-2-benzofuran-5-yl)-N-[(1-ethyl-3,5-dimethyl-1H-pyrazol-4-yl)methyl]prop-2-enamide] belongs 80.2%; to `C=CC(=O)N(CC)CC(=O)N1CCCC(F)(F)C1` [2-G14, N-[2-(3,3-difluoropiperidin-1-yl)-2-oxoethyl]-N-ethylprop-2-enamide], 97.5%; to `C=CC(=O)N1CCC(NC(C)=O)(c2noc(C)n2)C1` (stereo not shown) [2-G16, N-[3-(5-methyl-1,2,4-oxadiazol-3-yl)-1-(prop-2-enoyl)pyrrolidin-3-yl]acetamide], 94.8%.
Regarding `C=CC(=O)NC1CCOCC1` [2-G17, N-(oxan-4-yl)prop-2-enamide], the viability at 48 h, 25 µM amounted to 93.3%.
Then `C=CC(=O)N1CCC(c2ncc(C(=O)O)o2)CC1` [2-G19, 2-[1-(prop-2-enoyl)piperidin-4-yl]-1,3-oxazole-5-carboxylic acid], with 101%.
On to `C=CC(=O)N1CCC(Cc2noc(C)n2)CC1` [2-G22, 1-{4-[(5-methyl-1,2,4-oxadiazol-3-yl)methyl]piperidin-1-yl}prop-2-en-1-one], for which the viability at 48 h, 25 µM was determined as 103%.
Then `C=CC(=O)NCc1cn(C)nc1-c1ccccn1` [2-H03, N-{[1-methyl-3-(pyridin-2-yl)-1H-pyrazol-4-yl]methyl}prop-2-enamide], with 79.4%.

Usually viability stands for a read-out of living cells in per cent, often relative to untreated cells.

(Values after PMC11995724, “Antibiotic target discovery by integrated phenotypic and activity-based profiling of electrophilic fragments” (Cell chemical biology, 2025).)
